# Laboratory results published in patent publication US20160333019A1, “SYNTHESIS AND FORMULATIONS OF PORPHYRIN COMPOUNDS” (Aeolus Sciences, Inc., priority 2013, published 2016).
# What was measured:
# Type in all cases: physicochemical
# [1] = Solid form stability: vapor diffusion, drying, grinding, competitive slurry, by XRPD
# Procedure: Vapor Diffusion into Solid. Form I was used along with 21 solvent system to evaluate the effect of vapor diffusion on polymorphic behavior. About 2 mL solvent was added to a 20 mL scintillation vial. Furthermore, about 30 mg of solid was added to an open 2 mL HPLC vial and the whole vial was placed inside the bigger vial which contained the solvent. […] Both methanol and ethanol ended up with a mixture of Form I and Form VII. Form I kept its integrity at relative humidity of up to 85% which was generated using saturated potassium chloride.
# Drying and Thermal Treatment Studies. A sample was produced using 3 eq. of Mn(III) acetate. The slurry was filtered at ambient without any precautions. The relative humidity of the lab was at 54% at the time of filtration. The wet cake was washed with acetonitrile followed by XRPD analysis which conformed to Form I. The wet cake was dried on a XRPD plate with dome in the over at 40° C., under vacuum for overnight. Then, the sample holder was capped while in the oven followed by XRPD analysis. The resulting solid was a Form III. Then, the cap of the domed holder was opened and allowed the dry solid to be exposed to ambient at RH of 54%.
# Wet and Dry Grinding Studies. Form I was ground using mortar and pestle under dry and wet conditions. The solvents in wet grinding were acetonitrile, acetonitrile:water (98:2) and ethyl acetate. […] It should be noted that the grinding was performed under ambient conditions where relative humidity was around 50-60%.
# Competitive Slurry Experiments. Mixture of six crystal forms (I, II, III, V, VI and VII) were slurried in three different solvents (acetonitrile acetonitrile:water (98:2) and ethyl acetate), at 25±2° C. for 5 days followed by filtration under nitrogen inert condition. About 20 mg of each polymorph added to the vials. The total weight was […] in each vial and 0.75 mL solvent was added. After filtration, the cake was washed with the same solvent as the one used in the slurry. The cake was placed on a sample holder and sealed using the X-ray transparent dome and analyzed using XRPD. The cap was then removed and solid was dried at 45° C. and under vacuum for half a day. The dry sample was then sealed under nitrogen inert environment and analyzed by XRPD. The next step was to expose the dry sample to about 50% relative humidity for 30 minutes followed by XRPD analysis. In the case of acetonitrile, the wet cake was a new pattern designated as Form IV. In acetonitrile:water (98:2), the resulting solid was low crystalline Form I. It seemed that 2 vol % water was not enough to result in a crystalline hydrate. In the case of ethyl acetate, the solid was also low crystalline Form I plus a few extra peaks. The water in starting Form I could have been enough to result in a low crystalline Form I with some extra peaks of the starting forms in hydrophobic ethyl acetate. This was not observed in neat acetonitrile due to affinity of this solvent for water. […] Theoretically, the same water quantity in ethyl acetate results in higher water activity than in acetonitrile.
# Form II is the wet cake out of reaction mixture unexposed to moisture. Section 3.3.2.3 (reactive crystallization) describes the procedure of making Form II. FIG. 15 illustrates the XRPD of Form II. For XRPD analysis, a silicon plate with dome was used to prevent exposure to ambient. Form III is the result of drying of any of the solid forms. […] Due to instability, some peaks might be shifted if the same sample is repeated multiple times. FIG. 16 illustrates the XRPD of Form III. For XRPD analysis, a silicon plate with dome was used to prevent exposure to ambient. Form IV is the wet cake from slurrying all the solid forms in acetonitrile for at least 5 days and at room temperature. This form is unstable and upon exposure to moisture, it converts to Form I. FIG. 17 illustrates the XRPD of Form IV. For XRPD analysis, a silicon plate with dome was used to prevent exposure to ambient. […]
# [2] = Air oxidation of the Mn(II) form
# Procedure: Without being bound to any particular theory, the chemistry occurring when the pH of the 75 mg/mL solution rises from 4 to 9 over the 16-24 hour period may result from the presence of different oxidation states of Mn(II) and (III).
# One proton is consumed per one molecule of Mn (II) porphyrin complex in the oxidation process. In the absence of acid (for example in WFI water) the oxidation process is expected to be slower and generates hydroxyl-ions: […]
# [3] = Humidity stability of Form I, dynamic vapor sorption and equilibrium water uptake; conditions: equilibrium
# Procedure: Dynamic Vapor Sorption (DVS). Samples were analyzed using an […]™ DVS-2 gravimetric water sorption analyzer. The relative humidity was adjusted between 2-95% and the weight of sample was continuously monitored and recorded.
# Humidity Stability of Form I. Form I was exposed to a typical relative humidity range that most labs will experience e.g. 15-75% at 25° C. Initially the chamber relative humidity was adjusted at 50%. Then the RH was cycled between 15 to 75% and weight was monitored. FIG. 18 illustrates the changes in weight as a function of relative humidity. If the solid is equilibrated at 50% relative humidity the variation in weight would about ±2 wt % between 15-75% RH. Furthermore, an equilibrium study was performed at various relative humidity environments for extended time. Table 5.6 show the equilibrium % water uptake at various humidity levels.
molecule,measurement,setting,value
"[5,10,15,20-tetrakis(1,3-diethylimidazolium-2-yl)porphyrinato]manganese(III) chloride hydrate complex [Form IV]",stability of crystal form upon exposure to moisture,[1],unstable
CCn1cc[n+](CC)c1-c1c2nc(c(-c3n(CC)cc[n+]3CC)c3ccc([n-]3)c(-c3n(CC)cc[n+]3CC)c3nc(c(-c4n(CC)cc[n+]4CC)c4ccc1[n-]4)C=C3)C=C2.[Mn+2] [Mn(II) form],half-life of oxidation by air,[2]; aqueous solution containing 0.1% TFA,5 to 7 min
same,stability in air,[2]; solid state,relatively stable
"CCn1cc[n+](CC)c1-c1c2nc(c(-c3n(CC)cc[n+]3CC)c3ccc([n-]3)c(-c3n(CC)cc[n+]3CC)c3nc(c(-c4n(CC)cc[n+]4CC)c4ccc1[n-]4)C=C3)C=C2.O.[Cl-].[Cl-].[Cl-].[Cl-].[Cl-].[Mn+3] [Form III, [5,10,15,20-tetrakis(1,3-diethylimidazolium-2-yl)porphyrinato]manganese(III) chloride hydrate complex]",stability of crystal form upon exposure to moisture,[1],unstable and rapidly converts to Form I
same,time to full conversion to Form I,[1]; dry solid exposed to ambient at RH of 54%,less than half an hour
same,% water uptake,[3]; relative humidity 2 %,0.00%
"CCn1cc[n+](CC)c1-c1c2nc(c(-c3n(CC)cc[n+]3CC)c3ccc([n-]3)c(-c3n(CC)cc[n+]3CC)c3nc(c(-c4n(CC)cc[n+]4CC)c4ccc1[n-]4)C=C3)C=C2.O.[Cl-].[Cl-].[Cl-].[Cl-].[Cl-].[Mn+3] [Form I, [5,10,15,20-tetrakis(1,3-diethylimidazolium-2-yl)porphyrinato]manganese(III) chloride hydrate complex]",stability of crystal form,[1]; ambient conditions and relative humidity as low as 15%,stable
same,relative stability among crystal forms,"[1]; competitive slurry of forms I, II, III, V, VI and VII, exposure to moisture",most stable crystal form
same,stability under grinding conditions,"[1]; dry and wet grinding, mortar and pestle, ambient, relative humidity 50-60%",pretty stable
same,relative humidity up to which the form kept its integrity,"[1]; vapor diffusion, 6 days exposure, saturated potassium chloride",up to 85%
same,% water uptake,[3]; relative humidity 20 %,13.50%
same,% water uptake,[3]; relative humidity 40 %,15.01%
same,% water uptake,[3]; relative humidity 75 %,16.83%
same,% water uptake,[3]; relative humidity 80 %,19.06%
